Test results as given in PubChem BioAssay (NCI).
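The compound was tested at five concentrations on cells cultured in 96-well plates, with a 48-hour exposure period. GI50: concentration for 50% inhibition of growth. TGI is the concentration that stops growth completely.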

Columns and labels:
Test in all cases: NCI tumour cell line growth inhibition, 48 h
TK-10 renal = tested on: TK-10 renal
MOLT-4 leukemia = tested on: MOLT-4 leukemia
SF-295 CNS = tested on: SF-295 CNS
MDA-MB-231 breast = tested on: MDA-MB-231 breast
SW-620 colon = tested on: SW-620 colon
IGROV1 ovarian = tested on: IGROV1 ovarian
ACHN renal = tested on: ACHN renal
NCI-H460 lung = tested on: NCI-H460 lung
HOP-62 NSCLC = tested on: HOP-62 NSCLC
NCI/ADR-RES ovarian = tested on: NCI/ADR-RES ovarian
SK-OV-3 ovarian = tested on: SK-OV-3 ovarian
LOX IMVI melanoma = tested on: LOX IMVI melanoma
NCI-H226 lung = tested on: NCI-H226 lung
SK-MEL-5 melanoma = tested on: SK-MEL-5 melanoma
OVCAR-4 ovarian = tested on: OVCAR-4 ovarian
A498 renal = tested on: A498 renal
EKVX NSCLC = tested on: EKVX NSCLC
K-562 leukemia = tested on: K-562 leukemia
UACC-62 melanoma = tested on: UACC-62 melanoma
SNB-19 CNS = tested on: SNB-19 CNS
SK-MEL-28 melanoma = tested on: SK-MEL-28 melanoma
SF-268 CNS = tested on: SF-268 CNS
OVCAR-8 ovarian = tested on: OVCAR-8 ovarian
HOP-92 NSCLC = tested on: HOP-92 NSCLC
SNB-75 CNS = tested on: SNB-75 CNS
MALME-3M melanoma = tested on: MALME-3M melanoma
CCRF-CEM leukemia = tested on: CCRF-CEM leukemia
NCI-H522 lung = tested on: NCI-H522 lung
COLO 205 colon = tested on: COLO 205 colon
U251 CNS = tested on: U251 CNS
HL-60(TB) leukemia = tested on: HL-60(TB) leukemia
HCT-116 colon = tested on: HCT-116 colon
786-0 renal = tested on: 786-0 renal
HCC-2998 colon = tested on: HCC-2998 colon
HCT-15 colon = tested on: HCT-15 colon
OVCAR-5 ovarian = tested on: OVCAR-5 ovarian
UACC-257 melanoma = tested on: UACC-257 melanoma
HT29 colon = tested on: HT29 colon
UO-31 renal = tested on: UO-31 renal
RXF 393 renal = tested on: RXF 393 renal
PC-3 prostate = tested on: PC-3 prostate
DU-145 prostate = tested on: DU-145 prostate
SK-MEL-2 melanoma = tested on: SK-MEL-2 melanoma
MDA-MB-435 = tested on: MDA-MB-435
RPMI-8226 leukemia = tested on: RPMI-8226 leukemia
SR leukemia = tested on: SR leukemia
NCI-H23 lung = tested on: NCI-H23 lung
SN12C renal = tested on: SN12C renal
CAKI-1 renal = tested on: CAKI-1 renal
KM12 colon = tested on: KM12 colon
HS 578T breast = tested on: HS 578T breast
SF-539 CNS = tested on: SF-539 CNS
A549 NSCLC = tested on: A549 NSCLC
T-47D breast = tested on: T-47D breast
MDA-N = tested on: MDA-N
BT-549 breast = tested on: BT-549 breast
OVCAR-3 ovarian = tested on: OVCAR-3 ovarian
M14 melanoma = tested on: M14 melanoma
MCF7 breast = tested on: MCF7 breast

SMILES: O=[N+]([O-])c1ccc2oc(=Nc3ccccc3)c(Nc3ccccc3)nc2c1
- TGI (TK-10 renal): > 100 µM
- TGI (MOLT-4 leukemia): > 100 µM
- TGI (SF-295 CNS): > 100 µM
- TGI (MDA-MB-231 breast): > 100 µM
- TGI (SW-620 colon): > 100 µM
- TGI (IGROV1 ovarian): > 100 µM
- TGI (ACHN renal): > 100 µM
- TGI (NCI-H460 lung): > 100 µM
- TGI (HOP-62 NSCLC): > 100 µM
- TGI (NCI/ADR-RES ovarian): > 100 µM
- TGI (SK-OV-3 ovarian): > 100 µM
- TGI (LOX IMVI melanoma): > 100 µM
- TGI (NCI-H226 lung): > 100 µM
- TGI (SK-MEL-5 melanoma): > 100 µM
- TGI (OVCAR-4 ovarian): > 100 µM
- TGI (A498 renal): > 100 µM
- TGI (EKVX NSCLC): > 100 µM
- TGI (K-562 leukemia): > 100 µM
- TGI (UACC-62 melanoma): > 100 µM
- TGI (SNB-19 CNS): > 100 µM
- TGI (SK-MEL-28 melanoma): > 100 µM
- TGI (SF-268 CNS): > 100 µM
- TGI (OVCAR-8 ovarian): > 100 µM
- TGI (HOP-92 NSCLC): 93 µM
- TGI (SNB-75 CNS): 79.6 µM
- TGI (MALME-3M melanoma): > 100 µM
- TGI (CCRF-CEM leukemia): > 100 µM
- TGI (NCI-H522 lung): 67.2 µM
- TGI (COLO 205 colon): > 100 µM
- TGI (U251 CNS): > 100 µM
- TGI (HL-60(TB) leukemia): > 100 µM
- TGI (HCT-116 colon): > 100 µM
- TGI (786-0 renal): 76.6 µM
- TGI (HCC-2998 colon): > 100 µM
- TGI (HCT-15 colon): > 100 µM
- TGI (OVCAR-5 ovarian): > 100 µM
- TGI (UACC-257 melanoma): > 100 µM
- TGI (HT29 colon): > 100 µM
- TGI (UO-31 renal): > 100 µM
- TGI (RXF 393 renal): > 100 µM
- TGI (PC-3 prostate): > 100 µM
- TGI (DU-145 prostate): > 100 µM
- TGI (SK-MEL-2 melanoma): > 100 µM
- TGI (MDA-MB-435): > 100 µM
- TGI (RPMI-8226 leukemia): > 100 µM
- TGI (SR leukemia): > 100 µM
- TGI (NCI-H23 lung): > 100 µM
- TGI (SN12C renal): > 100 µM
- TGI (CAKI-1 renal): > 100 µM
- TGI (KM12 colon): > 100 µM
- TGI (HS 578T breast): > 100 µM
- TGI (SF-539 CNS): > 100 µM
- TGI (A549 NSCLC): > 100 µM
- TGI (T-47D breast): > 100 µM
- TGI (MDA-N): > 100 µM

SMILES: C=C/C(C)=C/C[C@]1(C)[C@H](C)[C@@H](OC(=O)CCC)[C@H](O)[C@@]23C(=C[C@H](OC)C[C@@H]12)[C@@H](OC(=O)CCC)O[C@H]3OC(C)=O
- GI50 (TK-10 renal): 0.181 µM
- TGI (TK-10 renal): 0.411 µM
- GI50 (MOLT-4 leukemia): 0.348 µM
- TGI (MOLT-4 leukemia): 1.55 µM
- GI50 (SF-295 CNS): 0.992 µM
- TGI (SF-295 CNS): 2.48 µM
- GI50 (MDA-MB-231 breast): 0.857 µM
- TGI (MDA-MB-231 breast): 2.45 µM
- GI50 (SW-620 colon): 0.333 µM
- TGI (SW-620 colon): 1.21 µM
- GI50 (IGROV1 ovarian): 1.53 µM
- TGI (IGROV1 ovarian): 3.39 µM
- GI50 (ACHN renal): 0.234 µM
- TGI (ACHN renal): 0.619 µM
- GI50 (NCI-H460 lung): 1.74 µM
- TGI (NCI-H460 lung): 3.52 µM
- GI50 (HOP-62 NSCLC): 1.62 µM
- TGI (HOP-62 NSCLC): 3.62 µM
- GI50 (NCI/ADR-RES ovarian): 0.88 µM
- TGI (NCI/ADR-RES ovarian): 2.46 µM
- GI50 (SK-OV-3 ovarian): 0.266 µM
- TGI (SK-OV-3 ovarian): 0.806 µM
- GI50 (LOX IMVI melanoma): 1.22 µM
- TGI (LOX IMVI melanoma): 2.56 µM
- GI50 (NCI-H226 lung): 0.38 µM
- TGI (NCI-H226 lung): 1.34 µM
- GI50 (SK-MEL-5 melanoma): 0.704 µM
- TGI (SK-MEL-5 melanoma): 2.03 µM
- GI50 (OVCAR-4 ovarian): 0.351 µM
- TGI (OVCAR-4 ovarian): 1.34 µM
- GI50 (A498 renal): 0.223 µM
- TGI (A498 renal): 0.645 µM
- GI50 (EKVX NSCLC): 0.987 µM
- TGI (EKVX NSCLC): 2.61 µM
- GI50 (K-562 leukemia): 0.438 µM
- TGI (K-562 leukemia): 2.41 µM
- GI50 (UACC-62 melanoma): 0.529 µM
- TGI (UACC-62 melanoma): 1.88 µM
- GI50 (SNB-19 CNS): 1.66 µM
- TGI (SNB-19 CNS): 3.58 µM
- GI50 (SK-MEL-28 melanoma): 0.431 µM
- TGI (SK-MEL-28 melanoma): 1.63 µM
- GI50 (SF-268 CNS): 1.58 µM
- TGI (SF-268 CNS): 3.25 µM
- GI50 (OVCAR-8 ovarian): 0.447 µM
- TGI (OVCAR-8 ovarian): 2.42 µM
- GI50 (HOP-92 NSCLC): 0.303 µM
- TGI (HOP-92 NSCLC): 1.13 µM
- GI50 (SNB-75 CNS): 1.21 µM
- TGI (SNB-75 CNS): 2.47 µM
- GI50 (MALME-3M melanoma): 0.313 µM
- TGI (MALME-3M melanoma): 1.03 µM
- GI50 (CCRF-CEM leukemia): 0.382 µM
- TGI (CCRF-CEM leukemia): 1.66 µM
- GI50 (NCI-H522 lung): 0.239 µM
- TGI (NCI-H522 lung): 0.741 µM
- GI50 (COLO 205 colon): 0.444 µM
- TGI (COLO 205 colon): 1.73 µM
- GI50 (U251 CNS): 1.32 µM
- TGI (U251 CNS): 2.98 µM
- GI50 (BT-549 breast): 1.11 µM
- TGI (BT-549 breast): 2.75 µM
- GI50 (OVCAR-3 ovarian): 0.191 µM
- TGI (OVCAR-3 ovarian): 0.4 µM
- GI50 (HL-60(TB) leukemia): 0.228 µM
- TGI (HL-60(TB) leukemia): 0.693 µM
- GI50 (M14 melanoma): 0.881 µM
- TGI (M14 melanoma): 2.55 µM
- GI50 (HCT-116 colon): 0.495 µM
- TGI (HCT-116 colon): 1.96 µM
- GI50 (786-0 renal): 0.287 µM
- TGI (786-0 renal): 0.888 µM
- GI50 (HCC-2998 colon): 0.238 µM
- TGI (HCC-2998 colon): 0.71 µM
- GI50 (HCT-15 colon): 0.34 µM
- TGI (HCT-15 colon): 1.29 µM
- GI50 (OVCAR-5 ovarian): 0.576 µM
- TGI (OVCAR-5 ovarian): 2.54 µM
- GI50 (UACC-257 melanoma): 0.854 µM
- TGI (UACC-257 melanoma): 2.56 µM
- GI50 (HT29 colon): 0.343 µM
- TGI (HT29 colon): 1.42 µM
- GI50 (UO-31 renal): 0.212 µM
- TGI (UO-31 renal): 0.586 µM
- GI50 (RXF 393 renal): 0.262 µM
- TGI (RXF 393 renal): 0.696 µM
- GI50 (PC-3 prostate): 0.511 µM
- TGI (PC-3 prostate): 2.31 µM
- GI50 (DU-145 prostate): 1.53 µM
- TGI (DU-145 prostate): 2.9 µM
- GI50 (SK-MEL-2 melanoma): 0.549 µM
- TGI (SK-MEL-2 melanoma): 2.09 µM
- GI50 (MDA-MB-435): 0.298 µM
- TGI (MDA-MB-435): 0.95 µM
- GI50 (RPMI-8226 leukemia): 0.341 µM
- TGI (RPMI-8226 leukemia): 1.65 µM
- GI50 (SR leukemia): 0.324 µM
- TGI (SR leukemia): 1.49 µM
- GI50 (NCI-H23 lung): 1.19 µM
- TGI (NCI-H23 lung): 2.83 µM
- GI50 (SN12C renal): 0.316 µM
- TGI (SN12C renal): 1.4 µM
- GI50 (CAKI-1 renal): 1.32 µM
- TGI (CAKI-1 renal): 2.64 µM
- GI50 (KM12 colon): 0.55 µM
- TGI (KM12 colon): 1.96 µM
- GI50 (HS 578T breast): 1.13 µM
- TGI (HS 578T breast): 3.38 µM
- GI50 (SF-539 CNS): 0.566 µM
- TGI (SF-539 CNS): 1.6 µM
- GI50 (A549 NSCLC): 1.65 µM
- TGI (A549 NSCLC): 3.62 µM
- GI50 (T-47D breast): 0.36 µM
- TGI (T-47D breast): 1.71 µM
- GI50 (MCF7 breast): 1.16 µM
- TGI (MCF7 breast): 2.91 µM
